Calls of active or inactive are those of the source. The calls are words filed in the database; no cut-off is given here.

This assay concerns the target Tubulin beta chain (Sus scrofa) (UniProt P02554). Briefly: Stimulation of porcine MAP-rich beta-tubulin polymerization at 25 ug/mL by light scattering assay.

Tubulin beta chain (Sus scrofa), sequence (P02554 whole entry): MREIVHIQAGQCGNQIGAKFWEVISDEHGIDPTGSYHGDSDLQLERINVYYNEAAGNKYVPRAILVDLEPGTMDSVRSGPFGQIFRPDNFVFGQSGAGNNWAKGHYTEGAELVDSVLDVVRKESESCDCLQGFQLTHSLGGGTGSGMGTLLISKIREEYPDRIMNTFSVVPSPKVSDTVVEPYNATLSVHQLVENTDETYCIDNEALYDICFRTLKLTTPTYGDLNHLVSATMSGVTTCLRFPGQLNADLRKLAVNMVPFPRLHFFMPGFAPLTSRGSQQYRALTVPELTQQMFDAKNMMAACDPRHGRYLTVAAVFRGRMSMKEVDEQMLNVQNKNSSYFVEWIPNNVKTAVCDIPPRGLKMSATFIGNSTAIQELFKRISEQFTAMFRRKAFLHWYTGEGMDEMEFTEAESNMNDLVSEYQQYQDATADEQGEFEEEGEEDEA

`CC(=O)O[C@H]1C(=O)[C@@]2(C)[C@H]([C@H](OC(=O)c3ccccc3)[C@]3(O)C[C@H](OC(=O)[C@H](O)[C@@H](NC(=O)c4ccccc4)c4ccccc4)C(C)=C1C3(C)C)[C@]1(OC(C)=O)CO[C@@H]1C[C@@H]2O`: the outcome was Active.

Source of the values: ChEMBL document CHEMBL2346578, “Substituted 1,6-diphenylnaphthalenes as FtsZ-targeting antibacterial agents” (2013).
